Test results from patent US20160264593A1 (priority 2013, published 2016).
Where “and” joins values, the source holds several entries; their conditions need not be identical. Identical values can stand only once. Like-named read-outs stand apart in the source and are kept apart here.

Tests used:
[1] = tested on: glioblastoma (U-87) cells; experiment: WST cell viability assay, U-87 MG; format: cell-based; conditions: for IC50: read-out: IC50 U-87 MG; for cytotoxicity against glioblastoma cells (statement): WST, U-87
[2] = tested on: lung cancer (A549) cells; experiment: WST cell viability assay, A549; format: cell-based; conditions: for IC50: WST-20131028, read-out: IC50 A549; for cytotoxicity against lung cancer cells (statement): WST
[3] = tested on: breast cancer (2LMP) cells
Excerpt: (§2) IC50 values were obtained for cytotoxicity against breast cancer (2LMP), glioblastoma (U-87) and lung cancer (A549) cells (See Table 5 and FIGS. 3-5).

[4] = tested on: breast cancer (2LMP) cells; experiment: WST cell viability assay, 2LMP
Excerpt: as §2

[5] = Pharmacokinetic study of 153 (and metabolite endothal) in SD rats, iv and po; plasma, liver, brain; format: in vivo
Protocol: The blood, liver and brain tissue samples were collected at predetermined times from rats. […] Compound were diluted shortly before use in 4% sodium bicarbonate for sterile injection (this is the standard pediatric solution of NaHCO3 with a pH of about 8.5).
Compound 153 was freshly prepared by diluting the drugs shortly before use in 4% sodium bicarbonate for sterile injection (this is the standard pediatric solution of NaHCO3 with a pH of about 8.5). The final concentrations of 153 solutions were 0.25 mg/mL. The 153 solutions were administered via iv or po route at dose volume of 5 ml/kg according to the latest body weight. Compound 157 was freshly prepared by diluting the drugs shortly before use in 4% sodium bicarbonate for sterile injection (this is the standard pediatric solution of NaHCO3 with a pH of about 8.5). The final concentrations of […] solutions were 0.3 mg/mL. The 157 solutions were administered via iv or po route at dose volume of 5 ml/kg according to the latest body weight.
Twelve (12) female SD rats per group were dosed by iv with 153 or 157. The rats were fasted overnight prior to dosing, with free access to water. Foods were withheld for 2 hours post-dose. Blood, liver and brain tissue samples in two animals each group were collected at each time point, within 10% of the scheduled time for each time point. Two extra animals were used for analytic method development.
Blood (>0.3 mL) were collected via aorta abdominalis in anaesthetic animals into tubes containing heparin at 15 min, 1, 2, 6, 10 and 24 hours after iv administration. Liver and brain tissues were collected immediately after animal death. The liver and brain tissues were excised and rinsed with cold saline to avoid blood residual. Upon collection, each sample was placed on ice and the blood samples were subsequently centrifuged (4° C., 11000 rpm, 5 min) to separate plasma. The obtained plasma, liver and brain tissue samples were stored at −70° C. until LC-MS/MS analysis.
Two (2) female SD rats per group were dosed by po with 153 or 157. The rats were fasted overnight prior to dosing, with free access to water. Foods were withheld for 2 hours post-dose. Blood samples (>0.3 mL) were collected via aorta abdominalis in anaesthetic animals into tubes containing heparin at 30 min, 1, 2, 6, 10 and 24 hours after po administration.
To each sample, 20 μL IS-D (for blank samples, 20 μL acetonitrile:water (1:1) was added) and 300 μl acetonitrile was added. The sample mixture was vortexed for approximately 3 min. After centrifugation at 10000 rpm for 5 min at 4° C., 100 μL of the upper layer was transferred to a new tube and added 200 μL 0.4% formic acid in water (pH 6.0). The mixture was vortexed for approximately 3 min before injected onto the LC/MS/MS system for analysis.
On the day of the assay, the frozen liver and brain samples were thawed unassisted at room temperature. An about 200 mg weighed sample of each thawed tissue was placed into a plastic tube with water (0.6 mL) to facilitate homogenization. Tissue processing was conducted using a homogenizer for approximately 1 min, 200 μl homogenate was transferred into a fresh Eppendorf tube. To each tube, 50 μL IS-D was added and mixed. Then 600 μl acetonitrile was added and the sample mixture was vortexed for approximately 3 min. After centrifugation at 10000 rpm for 5 min at 4° C., 400 μL of the upper layer was transferred to a new tube and evaporate the supernatant to dryness at 35° C. Reconstitute the residue with 200 μL of 0.4% formic acid in water (pH6.0), and vortex for 3 min, submit for LC-MS/MS analysis.
Frozen unknown plasma samples were completely thawed at room temperature and vortexed thoroughly. With a pipette, 50 μL of plasma was transferred into a 2.0 mL Eppendorf tube. 50 μL of 0.1N HCl and 800 μL ethyl acetate were added into each sample. The sample mixture was vortexed for approximately 3 min.

[6] = tested on: PP2A; experiment: PP2A immunoprecipitation phosphatase assay on mouse liver lysate, OA added to the reaction (positive control); format: biochemical, Balb/c mice
Protocol: (§1) Coomassie (Bradford) Protein Assay Kit (Pierce); PP2A Immunoprecipitation Phosphatase Assay Kit (Millipore); Lysate preparation for low endogenous phosphate: 20 mM imidazole-HCl, 2 mM EDTA, 2 mM EGTA, 1 mM PMSF, 1 mM benzamidine, 10 ug/ml each of aprotinin, leupeptin, antipain, soybean trypsin inhibitor; Normal Mouse IgG (Millipore); Okadaic acid (OA) (Tocris); DMSO (Sigma).
1. Mouse brain or liver was homogenized using lysis buffer (25 g/L), centrifuged at 12000 g for 10 minutes at […], and the supernatants were collected. 2. The protein was quantitated, and 240 μg of mouse brain or liver lysate was taken to assay phosphatase activity. 3. Added 4 μg of Anti-PP2A or 4 μg Normal mouse IgG as an IP control. 4. Added 30 μl Protein A agarose slurry. 5. Brought volume to 500 μl with pNPP Ser/Thr Assay Buffer. 6. Incubated for 2 h at 4° C. with constant rocking. 7. Washed beads 3 times with 700 μl TBS, followed by one wash with 500 μl Ser/Thr Assay Buffer. 8. Added 20 μl of Ser/Thr Assay Buffer. (In order to determine the linear range of PP2A amount for enzymatic reaction, different amounts of precipitated PP2A were used for subsequent phosphatase assay.) 9. Added 60 μl of diluted phosphopeptide (final concentration would be 750 μM) 10. Added OA (5 μM & 5 nM) or DMSO to the reaction system. 11. […]
14. […] Measured absorbance at a wavelength between […] in a microliter plate reader.

[7] = tested on: PP2A; experiment: PP2A immunoprecipitation phosphatase assay on mouse brain lysate, OA added to the reaction (positive control); format: biochemical, Balb/c mice
Protocol: as §1
1. Mouse brain or liver was homogenized using lysis buffer (25 g/L), centrifuged at 12000 g for 10 minutes at […], and the supernatants were collected. 2. The protein was quantitated, and 240 μg of mouse brain or liver lysate was taken to assay phosphatase activity. 3. Added 4 μg of Anti-PP2A or 4 μg Normal mouse IgG as an IP control. 4. Added 30 μl Protein A agarose slurry. 5. Brought volume to 500 μl with pNPP Ser/Thr Assay Buffer. 6. Incubated for 2 h at 4° C. with constant rocking. 7. Washed beads 3 times with 700 μl TBS, followed by one wash with 500 μl Ser/Thr Assay Buffer. 8. Added 20 μl of Ser/Thr Assay Buffer. (In order to determine the linear range of PP2A amount for enzymatic reaction, different amounts of precipitated PP2A were used for subsequent phosphatase assay.) 9. Added 60 μl of diluted phosphopeptide (final concentration would be 750 μM) 10. Added OA (5 μM & 5 nM) or DMSO to the reaction system. 11. Incubated for 10 minutes at 30° C. in a shaking incubator. 12. Centrifuged briefly and transferred 25 μl into each well of the microliter plate to be used.
13. Added 100 μl of Malachite Green Phosphate Detection Solution AB.
14. Let color develop for 10-15 minutes at RT. 15. Measured absorbance at a wavelength between […] in a microliter plate reader.

[8] = iv daily for 5 days, phase I; cited from earlier work
[9] = read-out: IC50 2LMP, WST-20131015 (first value of the cell)
[10] = read-out: IC50 2LMP, WST-20131025 (second value of the cell)
[11] = End. in plasma after 153 1.25 mg/kg IV, Mean
[12] = End. in plasma after 153 1.25 mg/kg IV, rat 1
[13] = End. in plasma after 153 1.25 mg/kg IV, rat 2
[14] = End. in plasma after 153 1.25 mg/kg PO, Mean
[15] = End. in plasma after 153 1.25 mg/kg PO, rat 1
[16] = End. in plasma after 153 1.25 mg/kg PO, rat 2
[17] = Endothal in liver after single iv 153 1.25 mg/kg, Mean
[18] = Endothal in liver after single iv 153 1.25 mg/kg, rat 1
[19] = Endothal in liver after single iv 153 1.25 mg/kg, rat 2
[20] = 5 nM OA in the reaction, brain sample M1-1
[21] = 5 μM OA in the reaction, brain sample M1-1

Structure (SMILES): CCCCC/C=C/C/C=C/CCCCCCCCOC(=O)C1C2CCC(O2)C1C(=O)N1CCN(C)CC1 (stereo not shown) [Compound 158, 3-(4-Methylpiperazine-1-carbonyl)-7-oxa-bicyclo [2,2,1] heptane-2-carboxylic acid linoleyl ester]
- IC50 ([1]; Homo sapiens, U-87 MG, WST-20131017 (first value of the cell)): 15.2 µM
- IC50 ([1]; Homo sapiens, U-87 MG, WST-20131024 (second value of the cell)): 8.28 µM
- cytotoxicity against glioblastoma cells (statement) [1]: cytotoxic
- IC50 ([2]; Homo sapiens, A549): 8.74 µM
- cytotoxicity against lung cancer cells (statement) ([2]; A549): cytotoxic
- cytotoxicity against breast cancer cells (statement) [3]: cytotoxic
- cytotoxicity relative to 100 (statement) [3]: increased cytotoxicity relative to 100
- IC50 [4, 9]: 9.19 µM
- IC50 [4, 10]: 12.8 µM

Structure (SMILES): CCCCCCCCCCCCCCCCCOC(=O)C1C2CCC(O2)C1C(=O)N1CCN(C)CC1 (stereo not shown) [Compound 159]
- cytotoxicity against glioblastoma cells (statement) [1]: cytotoxic
- IC50 ([1]; WST-20131017 (first value of the cell)): 5.41 µM
- IC50 ([1]; WST-20131024 (second value of the cell)): 5.07 µM
- cytotoxicity against lung cancer cells (statement) ([2]; A549): cytotoxic
- IC50 [2]: 4.71 µM
- cytotoxicity against breast cancer cells (statement) ([4]; WST, 2LMP): cytotoxic
- cytotoxicity relative to 100 (statement) ([4]; cell line not specified (2LMP, U-87, A549 tested)): increased cytotoxicity relative to 100
- IC50 [4, 9]: 4.66 µM
- IC50 [4, 10]: 4.62 µM

Structure (SMILES): O=C(O)C1C2CCC(O2)C1C(=O)O (stereo not shown) [End.]
- AUC [5, 11]: 378 ng·h/mL
- AUC0-∞ [5, 11]: 600 ng·h/mL
- Cmax [5, 11]: 70.5 ng/mL
- MRT (0-t) [5, 11]: 3.34 h
- T1/2 [5, 11]: 5.2 h
- Tmax [5, 11]: 1.13 h
- AUC [5, 12]: 482 ng·h/mL
- AUC0-∞ [5, 12]: 618 ng·h/mL
- Cmax [5, 12]: 77.1 ng/mL
- MRT (0-t) [5, 12]: 3.93 h
- T1/2 [5, 12]: 4.37 h
- Tmax [5, 12]: 2 h
- AUC [5, 13]: 274 ng·h/mL
- AUC0-∞ [5, 13]: 581 ng·h/mL
- Cmax [5, 13]: 63.8 ng/mL
- MRT (0-t) [5, 13]: 2.74 h
- T1/2 [5, 13]: 6.02 h
- Tmax [5, 13]: 0.25 h
- AUC [5, 14]: 179 ng·h/mL
- AUC0-∞ [5, 14]: 364 ng·h/mL
- Cmax [5, 14]: 46.9 ng/mL
- MRT (0-t) [5, 14]: 2.76 h
- T1/2 [5, 14]: 5.49 h
- Tmax [5, 14]: 0.75 h
- AUC [5, 15]: 189 ng·h/mL
- AUC0-∞ [5, 15]: 395 ng·h/mL
- Cmax [5, 15]: 53.6 ng/mL
- MRT (0-t) [5, 15]: 2.8 h
- T1/2 [5, 15]: 5.53 h
- Tmax [5, 15]: 1 h
- AUC [5, 16]: 169 ng·h/mL
- AUC0-∞ [5, 16]: 333 ng·h/mL
- Cmax [5, 16]: 40.2 ng/mL
- MRT (0-t) [5, 16]: 2.72 h
- T1/2 [5, 16]: 5.45 h
- Tmax [5, 16]: 0.5 h
- MRT (0-t) [5, 17]: 3.24 h
- T1/2 [5, 17]: 2.79 h
- Tmax [5, 17]: 2 h
- T1/2 [5, 18]: 3 h
- Tmax [5, 18]: 2 h
- MRT (0-t) [5, 19]: 3.43 h
- T1/2 [5, 19]: 2.57 h
- Tmax [5, 19]: 2 h

Structure (SMILES): C=C1[C@@H](O)[C@@H]2O[C@]3(CC[C@H](/C=C/[C@@H](C)[C@@H]4CC(C)=C[C@@]5(O[C@H](C[C@@](C)(O)C(=O)O)CC[C@H]5O)O4)O3)CC[C@H]2O[C@@H]1[C@@H](O)C[C@H](C)[C@H]1O[C@@]2(CCCCO2)CC[C@H]1C [OA, Okadaic acid]
- activity of PP2A in livers, positive control (statement) [6]: significantly inhibited
- Average Conc. [7, 20]: 270.60
- Average Relative Activity (vehicle = 100) [7, 20]: 12.46
- Conc. (phosphate, single reading) [7, 20]: 282.72 and 271.21
- Mean Conc. [7, 20]: 276.96
- Mean Conc. less IgG blank [7, 20]: 270.60
- Relative Conc. [7, 20]: 0.12
- Relative PP2A Activity (vehicle = 100) [7, 20]: 12.46
- Average Conc. [7, 21]: −5.54
- Average Relative Activity (vehicle = 100) [7, 21]: −0.38
- Mean Conc. [7, 21]: 0.82
- Mean Conc. less IgG blank [7, 21]: −5.54
- Relative Conc. [7, 21]: 0.00
- Relative PP2A Activity (vehicle = 100) [7, 21]: −0.38
- activity of PP2A in brains, positive control (statement) ([7]; OA added to the reaction): significantly inhibited

Structure (SMILES): C[C@@](O)(/C=C/[C@H]1CC=CC(=O)O1)[C@@H](C[C@@H](O)\C=C/C=C\C=C\CO)OP(=O)(O)O [fostriecin]
- dose limiting toxicity [8]: not achieved
- major toxicities [8]: reversible non-cumulative increases in serum creatinine and hepatic enzymes
